Measured values reported in ChEMBL document CHEMBL1155610, “A new indanone from the marine cyanobacterium Lyngbya majuscula that inhibits hypoxia-induced activation of the VEGF promoter in Hep3B cells” (J Nat Prod, 2000).
Calls of active or inactive are those of the source. No cut-off for these calls is given here.

Tests used:
Assay type in all cases: functional, cell-based
Hep 3B2 [1] = test: Inhibition of hypoxia-induced VEGF165 protein secretion in human Hep3B cells after 18 hrs by ELISA
Hep 3B2 [2] = test: Inhibition of hypoxia-induced activation of VEGF gene promoter in human Hep3B cells after 18 hrs by luciferase reporter gene assay
Hep 3B2 [3] = test: Growth inhibition of human Hep3B cells after 18 hrs
Hep 3B2 [4] = test: Effect on luciferase reporter gene expression in human Hep3B cells after 18 hrs

IC50 (Hep 3B2 [2]): 25 µM
Structure (SMILES): COC1CC(=O)c2c(C=O)cc(C)cc21 (centres undefined)
Activity (Hep 3B2 [1]): inactive
Activity (Hep 3B2 [3]): inactive
Activity (Hep 3B2 [4]): inactive
